Data as given in US20090054368A1, “Substituted gemini surfactant compounds” (University of Saskatchewan, priority 2007, published 2009).
Where “and” joins values, the source holds several entries; their conditions need not be identical. Equal entries are not always repeated. Entries after “also recorded” stand apart in the source; their conditions may differ.

What was measured:
[1] = test system: COS-7 African Green monkey kidney fibroblast cells; experiment: Transfection assay (luciferase production after transfection with plasmid DNA-gemini surfactant complexes); assay type: cell-based; conditions: PGL complexes, with DOPE added
Description: COS-7 African Green monkey kidney fibroblast cells (ATCC CRL1651) were prepared for transfection in antibiotic and 10% fetal bovine serum supplemented minimal Eagle's medium (MEM). The day before transfection, 5×10^4 cells/well were seeded in 24-well plates (Greiner Labortechnik GmbH, Germany). The supplemented MEM was changed to MEM one hour prior to transfection.
The pMASIA.Luc plasmid DNA was used at a concentration of 0.2 μg/well for transfection. The transfection mixtures were prepared as follows: 0.2 μg of plasmid DNA was mixed with aliquots of gemini surfactant solution to obtain a plasmid DNA:gemini surfactant charge ratio of 1:10 and incubated at room temperature for 15 minutes. To this mixture, 25 μL of DOPE liposomes were added. The transfection mixtures were incubated for 30 minutes at room temperature prior to transfection and added to the cells, dropwise. The plates were incubated for 5 hours at 37° C. in a CO2 incubator. Dc-Chol (30-[N—(N′,N′-Dimethylaminoethane)-carbamoyl]cholesterol) was used for comparison and, as a positive control, cells were also transfected with Lipofectamine Plus™ Reagent (Invitrogen Life Technologies, Carlsbad, Calif.), according to the manufacturer's protocol, with 0.2 μg of plasmid DNA per well.
Luciferase production was quantified using the Promega Steady-Glo™ luciferase assay system. Luminescence was monitored using a Turner Biosystems (Sunnyvale, Calif., USA) Reporter microplate luminometer. Statistical analysis was performed using ANOVA and Tukey's multiple comparison test. […] Equal variances were tested using Bartlett's test, and normality by the D'Agostino & Pearson omnibus normality test.

[2] = test system: cultured cells; experiment: Viability of cells following transfection; assay type: cell-based; conditions: after transfection with plasmid DNA-gemini surfactant-DOPE or Lipofectamine Plus; relative to controls (no treatment or plasmid DNA alone)
Description: Ideal transfection reagents are minimally toxic and/or disruptive to cells. Accordingly, the N-substituted surfactants were tested for toxicity in cultured cells. The viability of cells following transfection with either plasmid DNA-gemini surfactant-DOPE or Lipofectamine Plus are shown in FIG. 3. The aza-substituted surfactants 12-5N-12, 12-8N-12, and 12-7N-12 had similar toxicity compared to the Lipofectamine Plus reagent, with cell viability around 80% of the controls (i.e., no treatment or plasmid DNA alone; p>0.05).

[3] = Average membrane charge density calculation for plasmid DNA-gemini surfactant-DOPE nanoparticles; assay type: physicochemical; conditions: calculated from head group areas
[4] = Small angle X-ray scattering (SAXS) of plasmid DNA-gemini surfactant-DOPE complexes; assay type: physicochemical; conditions: for d-spacing of main scattering peak / phase / morphology of lipid bilayers from scattering pattern (in words) / d-spacing of adjacent DNA molecules: plasmid DNA-gemini surfactant-DOPE complexes; for d-spacing of adjacent DNA molecules: weak peaks at q=0.172 Å^−1; for scattering peak position q, DNA: scattering from adjacent DNA molecules
Description: SAXS measurements were carried out at beamline X21 at the National Synchrotron Light Source at Brookhaven National Laboratory. Beamline X21 is based on a wiggler source, with a helium gas-cooled Si(111) monochromator selecting the photon energy. The X-ray beam is focused by a toroidal mirror into the experimental station. Three pairs of precision slits, positioned at 4 m, 1 m, and 5 cm upstream of the sample, define the beam. The scattering pattern is recorded using a 13 cm Mar CCD detector (Mar USA, Evanston, Ill.) located 1.26 m (calibrated with the scattering pattern of silver behenate) downstream of the sample. The measurements were performed with 12 KeV x-rays and the data covered a q-range from 0.008 Å^−1 to 0.375 Å^−1. All beam paths are under vacuum, except at the sample position, where the sample is in air, and kapton windows terminate the vacuum beam paths. Samples were loaded into 1.5 mm capillaries (Charles Supper #15-BG, Natick Mass.) and data recorded at room temperature. All spectra were processed to remove background contributions by subtracting the scattering profile obtained for a water-filled capillary. Peak fitting was carried out using the open-sources software package “fityk” (available at http://www.unipress.waw.pl/fityk/; last accessed on Jul. 5, 2007) using multiple Gaussian functions.
Solutions for SAXS analysis were prepared by addition of appropriate amounts of stock surfactant, DNA, and DOPE solutions, followed by sonication (to ensure complete mixing) where appropriate. The pGTmCMV.IFN-GFP plasmid DNA was used in the SAXS studies. The final concentrations of DNA and DOPE were 0.075 mM (50 μg/mL) and 1.00 mM (0.75 mg/mL), respectively. The concentration of gemini surfactant was adjusted as needed to obtain the desired 1:10 DNA:surfactant charge ratio. Preliminary x-ray scattering studies indicated these concentrations to be too dilute to give good scattering signals; as a result, the samples were concentrated 5× by evaporation.

[5] = test system: COS-7 African Green monkey kidney fibroblast cells; experiment: Transfection assay (luciferase production after transfection with plasmid DNA-gemini surfactant complexes); assay type: cell-based; conditions: PG complexes, complexed with DNA in the absence of helper lipid (DOPE)
[6] = from reference [24]; cited from earlier work
[7] = test system: DNA; experiment: Binding constant between py-s-12 surfactants and DNA from changes in the UV spectrum of the pyrene moiety; design: species or system salmon; conditions: estimated from changes in the UV spectrum of the pyrene moiety
From the text: Similar to a series of peptide substituted pyrene compounds described in [51], the S1-S0, S2-S0, and S3-S0 transitions have lambdamax values of 376, 343, and 276 nm, respectively. The broadening of the absorbance bands of pyrene, the red shift in the absorbance band, and the observed hyperchromism in the presence of DNA are evidence of complexed pyrene compounds Quantitative estimates of the binding constants between py-s-12 surfactants and DNA were obtained by monitoring changes in the UV spectrum of the pyrene moiety. The binding constant for py-3-12 and DNA was estimated to be 5.9×10^3 L mol^−1 and that of py-6-12 was 1.9×10^4 L mol^−1. The stronger binding of py-6-12 to DNA implied that the distance between the cationic head groups is more suitable to electrostatically bind to DNA.
Pyrene, 6-bromohexanoyl chloride, anhydrous aluminum chloride, triethylsilane, trifluoroacetatic acid, N,N,N′,N′-tetramethylpropanediamine, N,N,N′,N′-tetramethylhexanediamine, and 1-bromododecane were purchased from Aldrich Inc. All solutions were prepared using analytical-grade water obtained from a Millipore Milli-Q filtration system. The sodium salt of double-stranded (ds) salmon sperm DNA (about 2 kbp, as stated by the manufacturer, Sigma) was used as received. […]

[8] = Size (hydrodynamic radius) and zeta potential as a function of pH; assay type: physicochemical; conditions: PGL complexes
Description: Determinations of size (hydrodynamic radius, RH) and zeta potential (ζ) as a function of pH were carried out using a Malvern Instruments (Worcestershire, UK) ZetaSizer NanoZs with MPT-2 auto-titrator attachment. 10 mL of the desired sample was placed in the titration cell of the auto-titrator and samples were titrated (in 0.2-0.5 pH unit increments) with 0.1 M NaOH and 0.1 M HCl over the desired pH range. Size and zeta potential measurement were made in triplicate at each pH point, and the reported values represent the average±standard error. pH titrations of aqueous gemini surfactant solutions were made at a surfactant concentration of 2.00 mM, above the critical micelle concentration in all cases.
Solutions for size, zeta potential, and circular dichrosicm (CD) measurements were prepared, in larger volumes, as described above for the transfection experiments using a pGTmCMV.IFN-GFP plasmid DNA, previously constructed in our lab. Solutions containing only surfactant and plasmid DNA were prepared by addition of an aliquot of stock plasmid DNA to the gemini surfactant solution to a charge ratio of 1:10 (DNA:surfactant).

[9] = previous work [11]; cited from earlier work
[10] = plasmid DNA-gemini surfactant-DOPE systems

For `CCCCCCCCCCCC[N+](C)(C)CCN(C)CC[N+](C)(C)CCCCCCCCCCCC` [12-5N-12], the “transfection efficiency (in words)” value [1] was “enhanced transfection efficiency compared to the un-substituted surfactant, 12-3-12; also recorded: higher levels of transfection efficiency compared to the non-substituted gemini surfactant 12-3-12”, the “transfection efficiency (in words)” value ([1]; listed as 125N-12) was “less efficient in DNA transfection” and the cell viability [2] was “around 80%”. The “membrane charge density σM” value [3] was 1.05 ×10^−2 e/Å^2, the “d-spacing of main scattering peak” value [4] was 58.6 Å and the “phase / morphology of lipid bilayers from scattering pattern (in words)” value (“phase / morphology of lipid bilayers” below) [4] was “lamellar (L) phase”. For the same compound, the “d-spacing of adjacent DNA molecules” value [4] was 36.5 Å, the “scattering peak position q, lamellar (L) phase” value [4, 10] was 0.107 Å^−1 and 0.207 (L) Å^−1 and the “scattering peak position q, DNA” value [4, 10] was 0.172 Å^−1 and 0.173 Å^−1. For the same compound, the “transfection efficiency (in words)” value [5] was “similarly low transfection efficiency compared to 12-3-12” and the “Head group area a0” value [6] was 1.30 ± 0.03 nm^2/molecule.
In the case of `CCCCCCCCCCCC[N+](C)(C)CCN(C)CCN(C)CC[N+](C)(C)CCCCCCCCCCCC` [12-8N-12], the cell viability [2] is reported as “around 80%”, the “membrane charge density σM” value [3] is reported as 0.780 ×10^−2 e/Å^2 and the “d-spacing of main scattering peak” value [4] is reported as 59.6 Å. For the same compound, the “phase / morphology of lipid bilayers” value [4] was “lamellar structure”, the “scattering peak position q, lamellar (L) phase” value [4, 10] was 0.105 Å^−1 and 0.210 (L) Å^−1 and the “scattering peak position q, no phase assigned” value [4, 10] was 0.119 Å^−1. For the same compound, the “scattering peak position q, DNA” value [4, 10] was 0.170 Å^−1 and 0.169 (DNA), Å^−1, the “transfection efficiency (in words)” value [5] was “similarly low transfection efficiency compared to 12-3-12” and the “Head group area a0” value [6] was 1.95 ± 0.13 nm^2/molecule.
For `CCCCCCCCCCCC[N+](C)(C)CC[N+](C)(C)CCCCCCCCCCCC.[Br-].[Br-]` [12-2-12, reference compound], the “membrane charge density σM” value [3] was 1.43 ×10^−2 e/Å^2, the “d-spacing of main scattering peak” value [4] was 61.7 Å and the “phase / morphology of lipid bilayers” value [4] was “lamellar (L) phase”. The “d-spacing of adjacent DNA molecules” value [4] was 36.5 Å, the “scattering peak position q, lamellar (L) phase” value [4, 10] was 0.203 (L) Å^−1 and 0.102 Å^−1 and the “scattering peak position q, DNA” value [4, 10] was 0.172 Å^−1. For the same compound, the “Head group area a0” value [6] was 0.89 ± 0.05 nm^2/molecule.
With `CCCCCCCCCCCC[N+](C)(C)CCOCC[N+](C)(C)CCCCCCCCCCCC.[Br-].[Br-]` [12-E01-12] the “transfection efficiency (in words)” value [1] was “enhanced transfection efficiency compared to 12-3-12; also recorded: higher levels of transfection efficiency compared to the non-substituted gemini surfactant 12-3-12” and the “phase / morphology of lipid bilayers” value [4] was “mixed lamellar, hexagonal, and cubic phases”.
With `CCCCCCCCCCCC[N+](C)(C)CCC[N+](C)(C)CCCCCCc1ccc2ccc3cccc4ccc1c2c34.[Br-].[Br-]` [py-3-12, N1-dodecyl,N1,N1,N3,N3-tetramethyl-N3-(6-(pyren-6-yl)-hexyl)propane-1,3-diammonium dibromide] the “binding constant with DNA” value [7] was 5900 L/mol.
In the case of `CCCCCCCCCCCC[N+](C)(C)CCCCCC[N+](C)(C)CCCCCCc1ccc2ccc3cccc4ccc1c2c34.[Br-].[Br-]` [py-6-12, N1-dodecyl,N1,N1,N6,N6-tetramethyl-N6-(6-(pyren-6-yl)-hexyl)hexane-1,6-diammonium dibromide], the “binding constant with DNA” value [7] is reported as 19000 L/mol.
For `CCCCCCCCCCCC[N+](C)(C)CCCN(C)CCC[N+](C)(C)CCCCCCCCCCCC.[Br-].[Br-]` [12-7N-12, 1,9-bis(dodecyl)-1,1,5,9,9-pentamethyl-5-aza-1,9,-nonanediammonium dibromide], the “transfection efficiency (in words)” value [1] was “enhanced transfection efficiency compared to the un-substituted surfactant, 12-3-12; also recorded: higher levels of transfection efficiency compared to the non-substituted gemini surfactant 12-3-12; also recorded: most efficient aza-substituted surfactant; also recorded: highest”, the cell viability [2] was “around 80%” and the “membrane charge density σM” value [3] was 0.748 ×10^−2 e/Å^2. The “d-spacing of main scattering peak” value [4] was 59.6 Å, the “pH dependence of particle size (in words)” value [8] was “remained essentially unchanged” and the “pH dependence of zeta potential (in words)” value [8] was “increased as a function of decreasing pH”. For the same compound, the “transfection efficiency (in words)” value [5] was “similarly low transfection efficiency compared to 12-3-12” and the “Head group area a0” value [6] was 2.06 ± 0.20 nm^2/molecule.
With `CCCCCCCCCCCC[N+](C)(C)CC(O)C(O)C[N+](C)(C)CCCCCCCCCCCC.[Br-].[Br-]` (stereo not drawn) [12-4(OH)2-12] the “transfection efficiency (in words)” value [1] was “enhanced transfection efficiency compared to 12-3-12; also recorded: higher levels of transfection efficiency compared to the non-substituted gemini surfactant 12-3-12” and the “phase / morphology of lipid bilayers” value [4] was “mixed lamellar, hexagonal, and cubic phases”.
In the case of `CCCCCCCCCCCC[N+](C)(C)CCCCCCCC[N+](C)(C)CCCCCCCCCCCC.[Br-].[Br-]` [12-8-12], the “transfection efficiency within the 12-s-12 series, s=3-8 (in words)” value [9] is listed as “lowest”.
